Laboratory results as given in patent US10961189B2, “Spiro-lactam NMDA receptor modulators and uses thereof” (Aptinyx Inc., priority 2016, dated 2021).

What was measured:
NMDAR2A = molecular target: T1, NMDAR2A (Homo sapiens, UniProt Q12879); assay: [3H]MK-801 binding in NMDAR expressing HEK cell membranes (facilitation of NMDAR activation); type: biochemical; details: 50 μM glutamate; for EC50: read-out: B: log EC50 (converted); for Emax: 0.25 h, read-out: A: % maximal [3H]MK-801 binding relative to 1 mM glycine
T1 construct: expressed in transfected cells; host or cells: HEK cells (membrane extract)
T1 sequence (Q12879 23-1464, species assumed, other chains not shown): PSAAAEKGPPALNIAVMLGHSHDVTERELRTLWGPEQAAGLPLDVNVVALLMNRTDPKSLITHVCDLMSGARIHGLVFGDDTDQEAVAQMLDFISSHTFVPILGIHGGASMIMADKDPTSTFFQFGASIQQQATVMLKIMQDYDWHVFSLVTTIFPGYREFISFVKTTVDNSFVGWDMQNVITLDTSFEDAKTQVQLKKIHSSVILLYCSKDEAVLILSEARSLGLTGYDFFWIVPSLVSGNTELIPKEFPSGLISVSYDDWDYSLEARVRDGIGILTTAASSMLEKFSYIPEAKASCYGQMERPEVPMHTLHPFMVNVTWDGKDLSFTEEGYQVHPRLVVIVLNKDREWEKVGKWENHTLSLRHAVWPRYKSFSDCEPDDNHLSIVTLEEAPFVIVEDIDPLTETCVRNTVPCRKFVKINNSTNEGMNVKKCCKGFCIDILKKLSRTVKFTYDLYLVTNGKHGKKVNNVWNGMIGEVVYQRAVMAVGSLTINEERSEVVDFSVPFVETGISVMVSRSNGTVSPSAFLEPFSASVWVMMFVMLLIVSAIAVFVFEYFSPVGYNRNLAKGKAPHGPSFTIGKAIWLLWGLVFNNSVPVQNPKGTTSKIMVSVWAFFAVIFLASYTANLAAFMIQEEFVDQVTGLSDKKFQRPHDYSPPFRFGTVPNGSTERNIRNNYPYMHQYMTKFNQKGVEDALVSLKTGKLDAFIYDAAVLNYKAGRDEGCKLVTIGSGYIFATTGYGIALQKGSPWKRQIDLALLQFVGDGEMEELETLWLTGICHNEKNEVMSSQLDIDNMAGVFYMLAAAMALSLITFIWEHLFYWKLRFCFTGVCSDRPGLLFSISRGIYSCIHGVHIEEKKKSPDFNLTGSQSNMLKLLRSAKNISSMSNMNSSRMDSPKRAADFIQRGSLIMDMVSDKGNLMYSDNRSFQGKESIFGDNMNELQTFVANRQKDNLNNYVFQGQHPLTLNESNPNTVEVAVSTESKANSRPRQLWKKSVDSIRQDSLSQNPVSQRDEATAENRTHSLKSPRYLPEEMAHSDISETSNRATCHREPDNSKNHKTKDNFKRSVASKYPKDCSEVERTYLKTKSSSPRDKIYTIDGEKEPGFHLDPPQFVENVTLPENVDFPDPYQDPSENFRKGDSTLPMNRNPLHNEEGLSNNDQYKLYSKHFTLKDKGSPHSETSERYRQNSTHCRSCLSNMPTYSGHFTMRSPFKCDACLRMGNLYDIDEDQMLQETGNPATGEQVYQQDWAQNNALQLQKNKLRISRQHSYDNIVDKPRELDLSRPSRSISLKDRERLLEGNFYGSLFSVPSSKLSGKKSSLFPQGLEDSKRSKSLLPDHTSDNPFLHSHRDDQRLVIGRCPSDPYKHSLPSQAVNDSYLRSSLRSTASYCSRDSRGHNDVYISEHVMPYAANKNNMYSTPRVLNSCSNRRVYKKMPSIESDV
Method: (§1) Assays were conducted as described by Moskal et al., “GLYX-13: a monoclonal antibody-derived peptide that acts as an N-methyl-D-aspartate receptor modulator,” Neuropharmacology, 49, 1077-87, 2005. These studies were designed to determine if the test compounds act to facilitate NMDAR activation in NMDAR2A, NMDAR2B, NMDAR2C or NMDAR2D expressing HEK cell membranes as measured by increases in [^3H]MK-801 binding.
(§2) In the assay, 300 μg of NMDAR expressing HEK cell membrane extract protein was preincubated for 15 minutes at 25° C. in the presence of saturating concentrations of glutamate (50 μM) and varying concentrations of test compound (1×10^15M−1×10^−7M), or 1 mM glycine. Following the addition of 0.3 μCi of [^3H]MK-801 (22.5 Ci/mmol), reactions were again incubated for 15 minutes at 25° C. (nonequilibrium conditions). Bound and free [^3H]MK-801 were separated via rapid filtration using a Brandel apparatus.
(§3) In analyzing the data, the DPM (disintegrations per minute) of [^3H]MK-801 remaining on the filter were measured for each concentration of test compound or for 1 mM glycine. The DPM values for each concentration of a ligand (N=2) were averaged. The baseline value was determined from the best fit curve of the DPM values modeled using the GraphPad program and the log(agonist) vs. response (three parameters) algorithm was then subtracted from all points in the dataset. The % maximal [^3H]MK-801 binding was then calculated relative to that of 1 mM glycine: all baseline subtracted DPM values were divided by the average value for 1 mM glycine. The EC50 and % maximal activity were then obtained from the best fit curve of the % maximal [^3H]MK-801 binding data modelled using the GraphPad program and the log(agonist) vs. response (three parameters) algorithm.
(§4) The tables below summarize the results for the wild type NMDAR agonists NMDAR2A, NMDAR2B, NMDAR2C, and NMDAR2D, and whether the compound is not an agonist (−), is an agonist (+), or is a strong agonist (++), where column A is based on the % maximal [^3H]MK-801 binding relative to 1 mM glycine (−=0; <100%=+; and >100%=++); and column B is based on log EC50 values (0=−; ≥1×10^−9 M (e.g., −8)=+; and <1×10^−9 M (e.g., −10)=++).

NMDAR2B = molecular target: T2, NMDAR2B (Homo sapiens, UniProt Q13224); assay: as above; type: biochemical; details: 50 μM glutamate; for EC50: read-out: B: log EC50 (converted); for Emax: 0.25 h, read-out: A: % maximal [3H]MK-801 binding relative to 1 mM glycine
T2 construct: expressed in transfected cells; host or cells: HEK cells (membrane extract)
T2 sequence (Q13224 27-1484, species assumed, other chains not shown): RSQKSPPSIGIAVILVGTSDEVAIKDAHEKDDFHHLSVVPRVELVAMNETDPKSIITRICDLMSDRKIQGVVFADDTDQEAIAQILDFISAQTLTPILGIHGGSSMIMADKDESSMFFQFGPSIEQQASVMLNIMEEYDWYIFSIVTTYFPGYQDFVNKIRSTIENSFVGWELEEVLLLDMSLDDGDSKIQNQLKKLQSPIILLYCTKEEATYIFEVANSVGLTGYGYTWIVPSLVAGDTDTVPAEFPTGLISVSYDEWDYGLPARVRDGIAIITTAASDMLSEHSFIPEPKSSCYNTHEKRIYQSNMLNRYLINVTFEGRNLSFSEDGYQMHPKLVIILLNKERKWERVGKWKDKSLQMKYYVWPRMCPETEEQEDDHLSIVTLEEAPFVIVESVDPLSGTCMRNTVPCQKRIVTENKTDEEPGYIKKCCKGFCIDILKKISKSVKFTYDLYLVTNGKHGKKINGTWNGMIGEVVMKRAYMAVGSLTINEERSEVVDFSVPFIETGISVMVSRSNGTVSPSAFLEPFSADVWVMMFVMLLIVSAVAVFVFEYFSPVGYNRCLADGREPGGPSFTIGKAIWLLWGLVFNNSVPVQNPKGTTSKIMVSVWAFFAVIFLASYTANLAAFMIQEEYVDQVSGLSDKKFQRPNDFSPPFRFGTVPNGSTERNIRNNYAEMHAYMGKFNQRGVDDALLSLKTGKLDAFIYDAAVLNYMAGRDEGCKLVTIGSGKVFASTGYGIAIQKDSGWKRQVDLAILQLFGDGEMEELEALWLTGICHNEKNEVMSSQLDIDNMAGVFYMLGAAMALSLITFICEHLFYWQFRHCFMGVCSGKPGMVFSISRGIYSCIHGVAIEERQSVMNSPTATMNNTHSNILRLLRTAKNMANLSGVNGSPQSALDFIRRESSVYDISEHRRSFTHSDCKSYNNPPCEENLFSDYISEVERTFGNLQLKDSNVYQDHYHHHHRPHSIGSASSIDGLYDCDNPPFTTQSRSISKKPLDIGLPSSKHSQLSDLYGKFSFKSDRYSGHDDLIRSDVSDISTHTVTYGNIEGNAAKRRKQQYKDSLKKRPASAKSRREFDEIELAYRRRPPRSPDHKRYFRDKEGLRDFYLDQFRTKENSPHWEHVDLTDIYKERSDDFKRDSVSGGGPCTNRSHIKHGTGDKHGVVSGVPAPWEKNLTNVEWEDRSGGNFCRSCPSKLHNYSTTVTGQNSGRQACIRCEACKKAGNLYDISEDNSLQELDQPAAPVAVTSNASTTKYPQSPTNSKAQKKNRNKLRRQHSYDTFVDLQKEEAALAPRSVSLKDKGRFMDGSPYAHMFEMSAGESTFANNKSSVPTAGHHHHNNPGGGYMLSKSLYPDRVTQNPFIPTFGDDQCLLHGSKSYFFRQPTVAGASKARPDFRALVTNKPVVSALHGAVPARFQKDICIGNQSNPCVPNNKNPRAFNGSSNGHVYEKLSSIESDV
Method: as §1, §2, §3, §4

Sprague Dawley rats [1] = assay: Porsolt forced swim test; type: in vivo, rat; design: key to Significance vs. vehicle: Yes: statistically significant (p<=0.05) from vehicle at dose level shown; No: not statistically significant from vehicle
Method: A non-clinical in vivo pharmacology study (Porsolt assay) was performed to measure antidepressant-like effects. A negative control (0.5% sodium carboxymethyl cellulose in 0.9% sterile saline vehicle) and a positive control (fluoxetine) are shown for comparison against test compound. The study allowed for the evaluation of the effects of each compound on the Porsolt forced swim test as assessed by the rats' response (reduced floating time) during a 5-minute swimming test.
(§5) Male 2-3 month old Sprague Dawley rats were used (Harlan, Indianapolis, Ind.). Rats were housed in Lucite cages with aspen wood chip bedding, maintained on a 12:12 light:dark cycle (lights on at 5 AM), and given ad libitum access to Purina lab chow (USA) and tap water throughout the study.
The Porsolt forced swim test adapted for use in rats was performed as described by Burgdorf et al., (The long-lasting antidepressant effects of rapastinel (GLYX-13) are associated with a metaplasticity process in the medial prefrontal cortex and hippocampus. Neuroscience 308:202-211, 2015). Animals were placed in a 46 cm tall×20 cm in diameter clear glass tube filled to 30 cm with tap water (23±1° C.) for 15 min on the first day (habituation) and 5 min on the subsequent test day. Positive control fluoxetine was dosed 3 times (24 h, 5 h and 1 h) prior to testing. Animals were tested 1 h or 24 h post-dosing with the test compounds or vehicle. Animals received a 15 min habituation session 1 day before the 5 min test. A subset of compounds tested at 1 h post-dosing were retested at 1 wk post-dosing in the same sets of animals. Water was changed after every other animal. Animals were videotaped, and floating time as defined as the minimal amount of effort required to keep the animals head above water was scored offline by a blinded experimenter with high inter-rater reliability (Pearson's r>0.9).
Each compound tested at dose level shown. Significance vs. vehicle group for each experiment is marked. […] A compound marked “No” was not statistically significant from vehicle. Data was averaged for test compound and vehicle groups (N approximately 8 per group) and the percent reduction in floating for group treated with test compound relative to group treated with vehicle is shown.

[2] = oral pharmacokinetics (plasma, brain, CSF); type: in vivo, Sprague Dawley rats; details: rat, per os 10 mg/kg; for AUC(0-t) / bioavailability / Tmax / Cmax: Sprague-Dawley, plasma, po, 10 mg/kg; for Tmax: normal saline (* in 5% NMP, 5% Solutol HS, 90% normal saline), read-out: Tmax; for Cmax: read-out: Cmax
Method: In another experiment, Sprague Dawley rats were dosed per os using a normal saline formulation containing 10 mg/kg of the compounds identified in the table below (except for the compounds marked with an asterisk (“*”) that were delivered in 5% NMP, 5% Solutol® HS and 90% normal saline formulation). Plasma, brain, and CSF samples were analyzed at various time points over a 24 hour period.

IV pharmacokinetics = type: in vivo, Sprague Dawley rats; details: rat, normal saline (* in 5% NMP, 5% Solutol HS, 90% normal saline); for AUC(0-t) / half-life / C0 / Vd: Sprague-Dawley, in vivo, iv, 2 mg/kg; for C0: read-out: C0; for Vd: read-out: Vss; for CI: intravenous 2 mg/kg
Source text: The table below summarizes the results of the IV pharmacokinetics.

Sprague Dawley rats [3] = assay: Bennett model of mechanical analgesia (sciatic nerve chronic constriction, paw withdrawal threshold); type: in vivo, rat; details: 150 mg/kg PO, example gabapentin control value;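 note: log paw withdrawal threshold scaled from vehicle group mean (0%) to naive 15 g value (100%)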
Method: The Bennett model of mechanical analgesia is used to assess the analgesic effects of compounds as measured by paw withdrawal threshold. Bennett GJ, Xie YK, “A peripheral mononeuropathy in rat that produces disorders of pain sensation like those seen in man,” Pain 33:87-107, 1988. […] Vehicle animals receive the surgery and then receive vehicle rather than test compound. Animals were tested 1 hr, 24 h and 1 wk post-test compound or vehicle administration.
as §5, with “used. Harlan was the supplier for all studies.” for “used (Harlan, Indianapolis, Ind.).”
Rats were anesthetized using inhaled isoflurane (2.5%). Sciatic nerve chronic constriction nerve injury surgery was performed as previously described (Bennett and Xie, 1988). An incision (˜1.5 cm in length) was made with a scalpel blade dorsally through skin on the right hind limb, parallel and posterior to femur. Using a small pointed hemostat, the biceps femoris and gluteus superficialis muscles were separated. Using curved blunt forceps, the common sciatic nerve was isolated and exposed. For the mechanical analgesia studies, the whole sciatic nerve was ligated. Using hemostats/forceps and chromic gut (5-0), the nerve was loosely ligated with a square knot; 3 ligatures, 1 mm apart were placed on the nerve. […] Testing occurred approximately 2 weeks post-surgery.
During testing, rats were acclimated to the surface of a suspended wire mesh grid (1 cm×1 cm, with the wire being 0.3 cm in diameter) for 15-20 min. Starting from the smallest, each Von Frey filament was pressed perpendicularly to the plantar surface of the affected (ipsilateral) hind paw until slightly bent and then held for 6 second. If an obvious hind paw withdrawal or a flinching behavior immediately after the withdrawal of the filament was not observed, the next larger filament was used in the same manner. In case of a response, a lower filament was used. This was repeated until six responses were collected.
For all studies, animals were baselined prior to study start to test for allodynia (defined as a paw withdrawal threshold under 5). A subset of animals was tested with gabapentin (150 mg/kg, PO) to ensure at least 50% analgesia. Once it was confirmed animals were ready for study initiation, animals were balanced across groups. All study investigators were blind to treatment conditions. Animals were dosed with 0.1, 1 or 10 mg/kg of test compound via oral gavage (PO), control sets of animals were dosed with gabapentin (150 mg/kg, PO) or vehicle (0.5% Na-CMC in 0.9% sterile saline, PO). Testing occurred 1 h post-dosing with animals retested 24 hrs and 1 week post-dosing. The percent analgesia calculations for each animal were made using the following equation: % analgesia=[(log(x)−y)/((log (z)−y)]*100, where x=the paw withdrawal threshold for the drug-treated animal in grams, y=the average of the log(x) values for the vehicle treated group, and z=the paw withdrawal threshold for naïve animals in grams (historical value of 15 used).
The results are shown in the table below where the percentage of analgesia is measured at 1 hour, 24 hours, and 1 week after compound administration. Since each study had its own gabapentin control group, an example gabapentin control value is shown.

[4] = 20 mg/kg, dosed 3 times (24 h, 5 h and 1 h) prior to testing, 1 h post-dose

SMILES	EC50 (NMDAR2A) [nM]	Emax (NMDAR2A) [%]	EC50 (NMDAR2B) [nM]	Emax (NMDAR2B) [%]	% reduction in float time (Sprague Dawley rats [1]; 0.1 mg/kg, 1 wk post-dose) [%]	Significance vs. vehicle (Sprague Dawley rats [1]; 0.1 mg/kg, 1 wk post-dose)	% reduction in float time (Sprague Dawley rats [1]; 0.1 mg/kg, 1 h post-dose) [%]	Significance vs. vehicle (Sprague Dawley rats [1]; 0.1 mg/kg, 1 h post-dose)	AUC(0-t) [2] [ng·h/mL]	bioavailability [2] [%]	Tmax [2] [min]	Cmax [2] [ng/mL]	CSF Cmax [2] [ng/mL]	Brain Cmax [2] [ng/mL]	A: % maximal [3H]MK-801 binding relative to 1 mM glycine (NMDAR2A)	AUC(0-t) (IV pharmacokinetics) [ng·h/mL]	half-life (IV pharmacokinetics) [min]	C0 (IV pharmacokinetics) [ng/mL]	Vd (IV pharmacokinetics) [L/kg]	CI (IV pharmacokinetics) [mL/min/kg]	other results
NC(=O)C(CO)N1CC2(CCCCC2)C1=O (single isomer, unassigned) [AS, 3-hydroxy-2-(l-oxo-2-azaspiro[3.5]nonan-2-yl)propanamide]	< 1	< 100	< 1	< 100	32.0	No	82.3	Yes (statistically significant (p<=0.05) from vehicle at dose level shown)	–	–	–	–	–	–	–	–	–	–	–	–	–
NC(=O)C(CO)N1CC2(CCCCC2)C1=O (single isomer, unassigned) [AT, 3-hydroxy-2-(l-oxo-2-azaspiro[3.5]nonan-2-yl)propanamide]	< 1	–	< 1	–	55.6	Yes (statistically significant (p<=0.05) from vehicle at dose level shown)	63.4	Yes (statistically significant (p<=0.05) from vehicle at dose level shown)	8340	80	15	6520	1758	120	+ (<100%=+)	2090	143	2760	1.14	15.94	A: % maximal [3H]MK-801 binding relative to 1 mM glycine (NMDAR2B): + (<100%=+)
CC1CCC2(CC1)CN(C(CCC(N)=O)C(N)=O)C2=O (single isomer, unassigned) [BF, 2-(7-methyl-1-oxo-2-azaspiro[3.5]nonan-2-yl)pentanediamide]	< 1	–	< 1	–	–	–	84.4	Yes (statistically significant (p<=0.05) from vehicle at dose level shown)	5290	100	30	3020	56.6	61.2	+ (<100%=+)	973	90.6	2220	1.52	34.13	A: % maximal [3H]MK-801 binding relative to 1 mM glycine (NMDAR2B): + (<100%=+)
C[C@@H](O)[C@@H](C(N)=O)N1CC2(CCCCC2)C1=O [Compound AA, (2S,3R)-3-hydroxy-2-(1-oxo-2-azaspiro[3.5]nonan-2-yl)butanamide]	–	0	< 1	< 100	–	–	42.0	Yes (statistically significant (p<=0.05) from vehicle at dose level shown)	1540	78	19.8	1230	–	–	–	397	35.4	608	2.23	84.91	% reduction in float time (Sprague Dawley rats [1]; 0.1 mg/kg, 24 h post-dose): 48.60%; Significance vs. vehicle (Sprague Dawley rats [1]; 0.1 mg/kg, 24 h post-dose): Yes (statistically significant (p<=0.05) from vehicle at dose level shown)
CNCCC(Oc1ccc(C(F)(F)F)cc1)c1ccccc1 (centres unmarked) [Fluoxetine, reference compound]	–	–	–	–	–	–	–	–	–	–	–	–	–	–	–	–	–	–	–	–	% reduction in float time (Sprague Dawley rats [1]; [4]): 54%; Significance vs. vehicle (Sprague Dawley rats [1]; [4]): Yes (statistically significant (p<=0.05) from vehicle at dose level shown)
NCC1(CC(=O)O)CCCCC1 [Gabapentin, reference compound]	–	–	–	–	–	–	–	–	–	–	–	–	–	–	–	–	–	–	–	–	% analgesia (Sprague Dawley rats [3]; 1 wk post-dosing): 0%; % analgesia (Sprague Dawley rats [3]; 1 h post-dosing): 72%; % analgesia (Sprague Dawley rats [3]; 1 h post-dosing, listed as gabapentin): at least 50%
